Laboratory results: a melting point compilation (Tetko et al.; mined from patent text by program, amines drawn as free bases though some values may be those of a salt)

melting point [°C] | SMILES
176 to 178 | O=C1C(=Cc2ccc(Br)cc2)CCc2cc(OCCc3c[nH]cn3)ccc21
218 to 219 | OC1CSC(Oc2cncc(-c3ccc(C(F)(F)F)cc3)c2)C(O)C1O (stereo not given)
100 to 103 | CC1(C)CC(=O)c2c(-c3ccccc3)sc(C#N)c2C1
> 300 | CNc1nc(NS(=O)(=O)c2ccc(N)cc2)cc(N(C)C)n1
118 to 120 | O=C1CCC(Cc2ccc(Cl)cc2)CN1 (stereo not given)
116 to 117 | CCCC1(CCC)c2ccccc2-c2ccc(O)cc21
154 to 155 | Cc1cc(-c2ccccc2)nc2nc(SCc3ccccc3)nn12
163 to 165 | O=CN1CCN(c2nc(Cl)nc(Cl)n2)CC1
156 to 158 | CCNc1nc2ccc(CCc3cn4ccc(C)cc4n3)cc2o1
120 | Cc1c(CNc2cc(CO)cc(CO)c2)nnn1Cc1ccc(Cl)c(Cl)c1
< 20 | CN(O)C(=O)c1ccccc1
190 to 196 | C=C1CCc2c(N3CCC(O)C3)c(F)cc3c(=O)c(C(=O)O)cn1c23 (stereo not given)
118 | CC(C)c1nc(CC(=O)O)n(C)c1Sc1cc(Cl)cc(Cl)c1
160 to 161 | Cc1cccc2sc(=NC(=O)C(F)(F)F)n(N)c12
182 | CC1CC(C(=O)Nc2ccccc2)(C(=O)OC(C)(C)C)N(C(=O)CNC(=O)OC(C)(C)C)C1c1ccccc1 (stereo not given)
276 to 278 | C=Cc1cc(O)cc2nc(-c3ccc(O)c(F)c3F)oc12
196 to 198 | CC(=O)Nc1c(C(=O)c2occc2CO)[nH]c2cc(Cl)ccc12
232 to 234 | COc1cccc(Nc2c(N)cc(C(=O)O)cc2S(N)(=O)=O)c1
87 to 97 | CC(=O)C(O)C1OC(n2cnc3c(NC4CCCc5ccccc54)ncnc32)C(O)C1O (stereo not given)
198 to 200 | Cc1cnc2sc(S(=O)(=O)c3ccccc3)nn2c1=O
160 to 161 | Cc1ccc(Sc2nc(-c3ccc(Cl)cc3)c(CCC(=O)O)o2)cc1
128 | CCc1c(C)nc2c(O)cccn2c1=O
238 | Cc1cc(-c2cc(C(F)F)n3ncc(C(=O)O)c3n2)ccc1Cl
131 to 139 | Oc1ccccc1Oc1ncc(Cl)cn1
108 to 110 | CCOC(=O)c1cc(SCc2ccccc2)c(Cc2ccccc2)c(S(N)(=O)=O)c1

melting point [°C] | SMILES
64 | CSc1cc(C(F)(F)F)ccc1C(=O)CC(=O)C1CC1
110 to 112 | CCc1coc(=O)n1C(=O)c1ccccc1Cl
93 to 95 | CC(=O)N1CCc2c(sc(C)c2CCBr)C1
85 | CN(C(=O)CN(C(=O)CNC(=O)Nc1cccc(/C=C/CO)c1)c1ccccc1)c1ccccc1
137 to 139 | CN(C(=S)Nc1ccc(NNC=O)cc1)c1ccccc1
148 to 150 | CCOC(=O)Cc1ccc(NC(=O)C(Cc2ccccc2)NS(=O)(=O)c2ccc(Cl)cc2)cc1 (racemic)
220 to 221 | COc1ccc(Cc2c(-c3ccc(OC(F)F)c(OC4CC4)c3)[nH]c3cn[nH]c(=O)c23)cn1
104 to 106 | CN1CCN(c2nn(C(=O)c3ccccc3)c3ccccc23)CC1
181 to 184 | COc1ccc(CNc2cc3c(Nc4ccc(F)c(Br)c4)ncnc3cn2)cc1
54 to 58 | Cc1c(Br)csc1C#N
207 to 211 | O=C1NCCN(Cc2ccc(OCc3ccccc3)cc2)C1c1ccccc1 (stereo not given)
94 to 96 | CCCOCCOC(=O)C(=O)Nc1nc(-c2ccccc2)cs1
60 to 62 | CCOC(=O)c1ccc(OCc2ccc(F)cc2)cc1
209 to 211 | CN(C)C1CCN(Cc2ccc(COc3cccc4c3CN(C3CCC(=O)NC3=O)C4=O)cc2)CC1 (stereo not given)
50 to 54 | CCCCCCCCCCCCCCCc1ccc(C=O)c(O)c1
151 to 152 | Cc1cccc(-c2ccc(C(=O)Nc3ccc4cc(CN5CCCC5)cnc4c3C)cc2)c1
244 | CS(=O)(=O)Nc1cc2c(c(C(=O)O)c1)NCCC2
130 to 134 | CCC12CCC3c4ccc(OC)cc4C(C)CC3C1CCC21OCCO1 (stereo not given)
215 | Cc1nn2c(C(F)(F)F)cc(-c3cccc(C(F)(F)F)c3)nc2c1C#N
175 to 178 | CN1CCN(C(=O)c2ccccc2)C1=C(Sc1ccccc1)[N+](=O)[O-]
362 | CC(=O)N1CCc2sc(/C=C3/C(=O)N4C(C(=O)O)=CS[C@H]34)cc2C1
309 to 311 | O=C(O)c1ccc(COCc2csc3nc(C(=O)NCc4cccnc4)[nH]c(=O)c23)cc1
155 to 157 | Cn1cc(C2=C(c3cn(CCCS)c4ccccc34)C(=O)NC2=O)c2ccccc21
136 to 137 | O=c1oc(-c2cccc(Cl)c2)cc(O)c1SCc1ccccc1
118 to 128 | CC(=O)C(Cc1cc(O)c(O)c([N+](=O)[O-])c1)C(C)=O

melting point [°C] | SMILES
209 to 211 | COc1ccc(S(=O)(=O)N2c3ccc(Br)cc3-c3ccccc3C2c2ccccc2)cc1 (stereo not given)
93 to 94 | CC1CC(C)(C)C(O)(CO)C1Cc1ccc(Cl)cc1 (stereo not given)
101 | CN1CCC(OC(c2cccc(C#CCN)c2)c2nc3ccccc3[nH]2)CC1 (stereo not given)
180 to 182 | ClCc1nccn1Cc1ccccc1
135 to 136 | Cc1ccc(S(=O)(=O)N(C)NC(=O)c2c(F)cccc2Cl)cc1
128 to 130 | CCOC(=O)c1c(CC(=O)O)n(-c2ccc(OC(F)(F)F)cc2)c2ccc(Oc3ncccc3C(N)=O)cc12
108 to 109 | OCc1cc2ccccc2c(-c2ccnc(Br)c2)c1CO
142 to 145 | Cc1ccc(Oc2c(Cl)c(Oc3ccc(C)cc3)c(Oc3ccc(C)cc3)c(C#N)c2C#N)cc1
241 | O=C(N[C@H]1CC[C@H](CCN2CCC(c3cccc4c3CCO4)CC2)CC1)c1ccc(-c2ccccc2)cc1
175 | CCCCCCCC(=O)N(C)Cc1cc(-c2ccc(C=CC(=O)O)cc2)cs1
45 | O=C(CC[C@@H](C(=O)OCc1ccccc1)n1c2ccccc2c2ccccc21)OCCOC(=O)c1ccc(NC(=O)OCc2ccccc2)cc1
204 to 205 | Nc1cc(N2C(=O)CCc3ccccc32)ccn1
147 to 148 | CCOc1nn(-c2ccc(C(F)(F)F)cn2)cc1CCOc1ccc(CCC(=O)O)c(OC)c1
219 to 221 | O=C(Cn1c(=O)n(S(=O)(=O)c2ccc(Cl)cc2)c(=O)c2ccc(Cl)cc21)Nc1ccc(C(=O)O)cc1
164 to 166 | Cn1c(=O)nc(-c2ccccc2Cl)c2cc(Cl)sc21
119 to 120 | O=C(NC1CCN(C2CCCCC2)C1)c1cccc2ccccc12 (stereo not given)
143 to 146 | CC1(C)CCC(C)(C)c2cc(N(Cc3ccc(F)cc3)C(=O)Nc3ccc(C(=O)O)cc3)ccc21
49.9 | Cc1cc2c(C(C)(C)C)c(O)ccc2o1
110 to 111 | CCCC(=O)c1cnc2c(NCCCN3CCOCC3)cccc2c1Nc1ccccc1C
290 to 292 | Cc1cccc2c1C(=O)N(C1CCC(=O)NC1=O)C2=O (stereo not given)
134 to 135 | OCc1ccc(OCc2csc(-c3ccccc3)n2)nc1
63 to 75 | COc1cccc(CNc2nccc(-c3cc(N4CCN(CCCN5CCCCC5)CC4)c4cc(OC)ccc4c3)n2)c1
90 to 92 | CN(C)CCCOc1ccc(-c2nn(CC(=O)OCc3ccccc3)c3ncccc23)cc1
> 300 | Cc1ncc(O)c(=O)[nH]1
235 to 237 | Nc1ncnc2c1c(-c1cc(O)cc(F)c1)nn2Cc1oc2ccccc2c(=O)c1-c1cccc(F)c1

melting point [°C] | SMILES
288 | COc1ccc(-c2[nH]nc3c2C(=O)c2c(NC(=O)C(C)C)cccc2-3)cc1
164 to 166 | O=C(c1ccc(-c2ccccc2)cc1)N1CCCCc2sccc21
66 to 68 | CC(=O)c1cc([N+](=O)[O-])c(F)cc1Cl
91 | CC(C)(C)OC(=O)N1CC[C@H](CNCc2ccccc2)[C@@H](O)C1
210 | CC(C)Cc1nc2cc(C(c3cccc(Cl)c3)n3ccnc3)ccc2[nH]c1=O (stereo not given)
214 to 215 | CC(C)(C)c1cc(CCc2ccccc2NC(=O)NCc2ccncc2)cc(C(C)(C)C)c1O
259 to 261 | CNC(=O)c1cccc(CN2CCN(c3nc(C)c(-c4cc(C)n[nH]4)s3)C2=O)c1
120 to 121 | CO/C=C1/C(=O)NC(=O)c2ccc(I)cc21
> 230 | C=C1CN(Cc2ccc(C(=O)Nc3ccccc3N)cc2)C(CC(=O)O)c2ccccc21 (stereo not given)
112 to 116 | COc1ccc(-c2cc(COS(C)(=O)=O)c(=O)n(CCCc3ccc(F)cc3)n2)cc1F
165 to 170 | Cc1c(-c2ccccc2)oc2c(S(=O)(=O)Cl)cccc2c1=O
176 to 177 | CC(c1ccc2c(c1)N(C)c1cc(Cl)ccc1S2)N(O)C(N)=O (stereo not given)
232 to 233 | CC(C)Cn1c(CNC(=O)OC(C)(C)C)c(-c2ccccc2F)c2cc(C(N)=O)ccc2c1=O
156 to 157 | CC(C)(C)c1cc(C(=O)c2ccccc2)cc(CN2CCC(O)CC2)c1O
115 to 117 | CC(=O)c1ccc(OCCN2CCN(c3cc(Cl)nnc3Cl)CC2)cc1
177 to 178 | COc1ccc(S(=O)(=O)Nc2cccc(F)c2/C=C/c2ccncc2)cc1
114 to 119 | O=CN(Cc1cccs1)C1(c2ccc(Cl)cc2)CCC1
137 to 139 | COc1cc(NCCCCCCN2CCCN(C)CC2)c2nccc(C)c2c1
298 | O=C1CCC2C=C(c3cccnc3)C(O)=CC2N1 (stereo not given)
> 260 | O=C(c1ccc(Cl)cc1)c1cnc2ccc(Cl)cc2c1O
195 to 196 | O=c1oc2ccccc2cc1S(=O)(=O)Cc1ccc(Cl)cc1
186 to 188 | COc1c(C)cnc(CSc2nc3ncccc3[nH]2)c1C

SMILES | melting point [°C]
Cc1cc2c(cc1O)C(C)(C)CC1(CC(C)(C)c3cc(OCCCO)c(C)cc3O1)O2 (stereo not given) | 175 to 177
CCCn1nc(C(N)=O)cc1CC | 105 to 106
CC(=O)OC1(C)CCC2C3C(C#N)CC4=CC(=O)CCC4(C)C3CCC21C (stereo not given) | 211 to 216
